Assay results reported in ChEMBL document CHEMBL6153020, “Identification of Isoliensinine as a Ferroptosis Suppressor with Iron-Chelating Activity” (J Nat Prod, 2025).
Active and inactive are the calls of the source. The rule behind the calls is not given here.

Assays:
HT-1080 [1] = assay: Anti-ferroptosis activity against FINO2-induced ferroptosis in human HT-1080 cells assessed as increase in cell viability at 20 uM incubated overnight by cell counting kit 8 method; assay type: functional, cell-based
HT-1080 [2] = assay: Anti-ferroptosis activity against RSL3-induced ferroptosis in human HT-1080 cells assessed as increase in cell viability at 10 uM incubated for 24 hrs by CCK-8 assay; assay type: functional, cell-based
HT-1080 [3] = assay: Anti-ferroptosis activity against RSL3-induced ferroptosis in human HT-1080 cells assessed as increase in cell viability at 5 uM incubated for 24 hrs by cell counting kit 8 method; assay type: functional, cell-based
HT-1080 [4] = assay: Anti-ferroptosis activity against RSL3-induced ferroptosis in human HT-1080 cells assessed as protection against cell death at 10 uM incubated for 24 hrs by SYTOX Green staining based light microscopy analysis; assay type: functional
HT-1080 [5] = assay: Anti-ferroptosis activity against RSL3-induced ferroptosis in human HT-1080 cells assessed as restoration of lipid peroxidation level by BODIPY 581/591 C11 dye based flow cytometry analysis; assay type: functional, cell-based
HT-1080 [6] = assay: Anti-ferroptosis activity against RSL3-induced ferroptosis in human HT-1080 cells assessed as reduction in ROS level by DCFH-DA dye based analysis; assay type: functional, cell-based
HT-1080 [7] = assay: Anti-ferroptosis activity against RSL3-induced ferroptosis in human HT-1080 cells assessed as reduction in MDA level; assay type: functional, cell-based
HT-1080 [8] = assay: Anti-ferroptosis activity against RSL3-induced ferroptosis in human HT-1080 cells assessed as upregulation of PTGS2 mRNA expression by qPCR analysis; assay type: functional, cell-based
HT-1080 [9] = assay: Anti-ferroptosis activity against IKE-induced ferroptosis in human HT-1080 cells assessed as increase in cell viability at 1 to 50 uM incubated for 24 hrs by cell counting kit 8 method; assay type: functional, cell-based; conditions: dose 1-50 µM
HT-1080 [10] = assay: Anti-ferroptosis activity against IKE-induced ferroptosis in human HT-1080 cells assessed as increase in cell viability at 10 uM incubated for 24 hrs by SYTOX Green staining based light microscopy analysis; assay type: functional
HT-1080 [11] = assay: Anti-ferroptosis activity against IKE-induced ferroptosis in human HT-1080 cells assessed as inhibition of lipid peroxidation level at 5 uM by BODIPY 581/591 C11 dye based flow cytometry analysis; assay type: functional, cell-based
HT-1080 [12] = assay: Anti-ferroptosis activity against IKE-induced ferroptosis in human HT-1080 cells assessed as effect on GSH level at 5 uM; assay type: functional, cell-based
HT-1080 [13] = assay: Anti-ferroptosis activity against IKE-induced ferroptosis in human HT-1080 cells assessed as effect on GSH/GSSG ratio at 5 uM; assay type: functional, cell-based
[14] = Antioxidant activity assessed as ABTS radical scavenging activity at 5 uM by ABTS method; assay type: functional
HT-1080 [15] = assay: Anti-ferroptosis activity against FINO2-induced ferroptosis in human HT-1080 cells assessed as increase in cell viability at 1 to 50 uM incubated for 24 hrs by cell counting kit 8 method; assay type: functional, cell-based; conditions: dose 1-50 µM
HT-1080 [16] = assay: Anti-ferroptosis activity against FINO2-induced ferroptosis in human HT-1080 cells assessed as decrease in cell death at 5 uM incubated for 24 hrs by SYTOX Green staining based light microscopy analysis; assay type: functional
HT-1080 [17] = assay: Anti-ferroptosis activity against RSL3-induced ferroptosis in human HT-1080 cells assessed as reduction in GPX4 level at 5 uM by Western blot analysis; assay type: functional, cell-based
HT-1080 [18] = assay: Anti-ferroptosis activity against RSL3-induced ferroptosis in human HT-1080 cells assessed as increase in cell viability at 10 uM incubated overnight in the presence of ML385 by cell counting kit 8 method; assay type: functional, cell-based
HT-1080 [19] = assay: Anti-ferroptosis activity against FINO2-induced ferroptosis in human HT-1080 cells assessed as reduction in MDA level at 5 uM; assay type: functional, cell-based
HT-1080 [20] = assay: Anti-ferroptosis activity against FINO2-induced ferroptosis in human HT-1080 cells assessed as upregulation of PTGS2 mRNA level at 5 uM by qPCR analysis; assay type: functional, cell-based
HT-1080 [21] = assay: Anti-ferroptosis activity against FINO2-induced ferroptosis in human HT-1080 cells assessed as reduction in total iron level at 5 uM by live-cell fluorescent imaging; assay type: functional, cell-based
HT-1080 [22] = assay: Anti-ferroptosis activity against FINO2-induced ferroptosis in human HT-1080 cells assessed as reduction in Fe2+ oxidation level at 5 uM by colorimetric method; assay type: functional, cell-based
HT-1080 [23] = assay: Anti-ferroptosis activity against FeSO4/8HQ-induced ferroptosis in human HT-1080 cells assessed as increase in cell viability at 1 to 10 uM incubated for 24 hrs by cell counting kit 8 method; assay type: functional, cell-based; conditions: dose 1-10 µM
HT-1080 [24] = assay: Anti-ferroptosis activity against FeSO4/8HQ-induced ferroptosis in human HT-1080 cells assessed as reduction in Fe2+ level at 5 uM by FerroOrange staining based live-cell fluorescent imaging; assay type: functional
HT-1080 [25] = assay: Anti-ferroptosis activity against FeCl3/8HQ-induced ferroptosis in human HT-1080 cells assessed as increase in cell viability at 1 to 50 uM incubated for 24 hrs by cell counting kit 8 method; assay type: functional, cell-based; conditions: dose 1-50 µM
HT-1080 [26] = assay: Anti-ferroptosis activity against FeCl3/8HQ-induced ferroptosis in human HT-1080 cells assessed as reduction in total iron level at 5 uM by live-cell fluorescent imaging; assay type: functional, cell-based
HT-1080 [27] = assay: Anti-ferroptosis activity against FeCl3/8HQ-induced ferroptosis in human HT-1080 cells assessed as reduction in MDA level at 5 uM; assay type: functional, cell-based
HT-1080 [28] = assay: Anti-ferroptosis activity against FeCl3/8HQ-induced ferroptosis in human HT-1080 cells assessed as increase in cell viability at 5 uM incubated for 24 hrs by cell counting kit 8 method; assay type: functional, cell-based
HT-1080 [29] = assay: Anti-ferroptosis activity against FeSO4/8HQ-induced ferroptosis in human HT-1080 cells assessed as reduction in total iron level at 5 uM by live-cell fluorescent imaging; assay type: functional, cell-based
HT-1080 [30] = assay: Anti-ferroptosis activity against FeSO4/8HQ-induced ferroptosis in human HT-1080 cells assessed as reduction in MDA level at 5 uM; assay type: functional, cell-based
HT-1080 [31] = assay: Anti-ferroptosis activity against ZnCl2-induced ferroptosis in human HT-1080 cells assessed as increase in cell viability at 5 uM incubated for 24 hrs by cell counting kit 8 method; assay type: functional, cell-based
HT-1080 [32] = assay: Anti-ferroptosis activity against MnCl2-induced ferroptosis in human HT-1080 cells assessed as increase in cell viability at 5 uM incubated for 24 hrs by cell counting kit 8 method; assay type: functional, cell-based
Mus musculus [33] = assay: Protection against male acute iron overload C57BL/6 mouse model assessed as reduction in hepatic iron content at 10 mg/kg, ip pretreated with iron sulfate for 8 hrs followed by compound administered for 30 min; assay type: functional, organism-based
Mus musculus [34] = assay: Protection against acute iron overload in male C57BL/6 mouse model assessed as reduction in liver iron content at 10 mg/kg, ip pretreated with iron sulfate for 8 hrs followed by compound administered for 30 min by Perls Prussian blue staining; assay type: functional, organism-based
Mus musculus [35] = assay: Protection against acute iron overload in male C57BL/6 mouse model assessed as reduction in spleen iron content at 10 mg/kg, ip pretreated with iron sulfate for 8 hrs followed by compound administered for 30 min by Perls Prussian blue staining; assay type: functional, organism-based
Mus musculus [36] = assay: Protection against acute iron overload in male C57BL/6 mouse model assessed as reduction in hepatic FTH level at 10 mg/kg, ip pretreated with iron sulfate for 8 hrs followed by compound administered for 30 min by Western blot analysis; assay type: functional, organism-based
Mus musculus [37] = assay: Protection against acute iron overload in male C57BL/6 mouse model assessed as reduction in hepatic FTL level at 10 mg/kg, ip pretreated with iron sulfate for 8 hrs followed by compound administered for 30 min by Western blot analysis; assay type: functional, organism-based
[38] = Toxicity in C57BL/6 mouse assessed as change in ALT level in serum at 10 mg/kg, ip pretreated with iron sulfate for 8 hrs followed by compound administered for 30 min by automatic biochemical analyzer; assay type: organism-based; conditions: in vivo, 30 h
[39] = Toxicity in C57BL/6 mouse assessed as change in AST level in serum at 10 mg/kg, ip pretreated with iron sulfate for 8 hrs followed by compound administered for 30 min by automatic biochemical analyzer; assay type: organism-based; conditions: in vivo, 30 h
[40] = Toxicity in C57BL/6 mouse assessed as change in CK level in serum at 10 mg/kg, ip pretreated with iron sulfate for 8 hrs followed by compound administered for 30 min by automatic biochemical analyzer; assay type: organism-based; conditions: in vivo, 30 h
[41] = Toxicity in C57BL/6 mouse assessed as change in LDH level in serum at 10 mg/kg, ip pretreated with iron sulfate for 8 hrs followed by compound administered for 30 min by automatic biochemical analyzer; assay type: organism-based; conditions: in vivo, 30 h
Mus musculus [42] = assay: Anti-ferroptotic activity against acute iron overload in male C57BL/6 mouse model assessed as reduction in MDA level in liver at 10 mg/kg, ip pretreated with iron sulfate for 8 hrs followed by compound administered for 30 min; assay type: functional, organism-based
Mus musculus [43] = assay: Anti-ferroptotic activity against acute iron overload in male C57BL/6 mouse model assessed as reduction in […] mRNA expression level in liver at 10 mg/kg, ip pretreated with iron sulfate for 8 hrs followed by compound administered for 30 min by qPCR analysis; assay type: functional, organism-based
HT-1080 [44] = assay: Anti-ferroptosis activity against RSL3-induced ferroptosis in human HT-1080 cells assessed as increase in cell viability at 50 uM incubated for 24 hrs by cell counting kit 8 method; assay type: functional, cell-based

SMILES: COc1cc2c(cc1OC)[C@@H](Cc1ccc(O)c(Oc3cc4c(cc3OC)CCN(C)[C@@H]4Cc3ccc(O)cc3)c1)N(C)CC2
- Activity (HT-1080 [1]): inactive

SMILES: COc1ccc(C[C@@H]2c3cc(Oc4cc(C[C@@H]5c6cc(O)c(OC)cc6CCN5C)ccc4O)c(OC)cc3CCN2C)cc1 [ISOLIENSININE]
- Activity (HT-1080 [2]): Active; Strong Protection
- Activity (HT-1080 [3]): Active
- Activity (HT-1080 [4]): Active
- Activity (HT-1080 [5]): Active
- Activity (HT-1080 [6]): Active
- Activity (HT-1080 [7]): Active
- Activity (HT-1080 [8]): Active
- Activity (HT-1080 [9]): Active
- Activity (HT-1080 [10]): Active
- Activity (HT-1080 [11]): Active
- Activity (HT-1080 [12]): Active
- Activity (HT-1080 [13]): Active
- Activity [14]: inactive
- Activity (HT-1080 [15]): Active
- Activity (HT-1080 [16]): Active
- Activity (HT-1080 [17]): inactive
- Activity (HT-1080 [18]): Active
- Activity (HT-1080 [19]): Active
- Activity (HT-1080 [20]): Active
- Activity (HT-1080 [21]): Active
- Activity (HT-1080 [22]): Active
- Activity (HT-1080 [23]): Active
- Activity (HT-1080 [24]): Active
- Activity (HT-1080 [25]): Active
- Activity (HT-1080 [26]): Active
- Activity (HT-1080 [27]): Active
- Activity (HT-1080 [28]): inactive
- Activity (HT-1080 [29]): Active
- Activity (HT-1080 [30]): Active
- Activity (HT-1080 [31]): inactive
- Activity (HT-1080 [32]): inactive
- Activity (Mus musculus [33]): Active
- Activity (Mus musculus [34]): Active
- Activity (Mus musculus [35]): Active
- Activity (Mus musculus [36]): Active
- Activity (Mus musculus [37]): Active
- Activity [38]: Non-toxic
- Activity [39]: Non-toxic
- Activity [40]: Non-toxic
- Activity [41]: Non-toxic
- Activity (Mus musculus [42]): Active
- Activity (Mus musculus [43]): Active

SMILES: C/C=C/c1ccc(OC(C)=O)c(OC)c1
- Activity (HT-1080 [2]): Active; Strong Protection
- Activity (HT-1080 [44]): Active
- Activity (HT-1080 [4]): Active
- Activity (HT-1080 [5]): Active
- Activity (HT-1080 [6]): Active
- Activity (HT-1080 [7]): Active
- Activity (HT-1080 [8]): Active
- Activity (HT-1080 [9]): Active
- Activity (HT-1080 [10]): Active
- Activity (HT-1080 [11]): Active
- Activity (HT-1080 [12]): Active
- Activity (HT-1080 [13]): Active
- Activity [14]: inactive
- Activity (HT-1080 [15]): inactive
- Activity (HT-1080 [16]): inactive
- Activity (HT-1080 [17]): inactive
- Activity (HT-1080 [18]): Active
- Activity (HT-1080 [25]): inactive

SMILES: C=CC(C)(C)c1cc(/C=C/C(=O)c2ccc(O)cc2)c(OC)cc1O
- Activity (HT-1080 [2]): Active; Strong Protection
- Activity (HT-1080 [3]): Active
- Activity (HT-1080 [4]): Active
- Activity (HT-1080 [5]): Active
- Activity (HT-1080 [6]): Active
- Activity (HT-1080 [7]): Active
- Activity (HT-1080 [8]): Active
- Activity (HT-1080 [9]): Active
- Activity (HT-1080 [10]): Active
- Activity (HT-1080 [11]): Active
- Activity (HT-1080 [12]): Active
- Activity (HT-1080 [13]): Active
- Activity [14]: inactive
- Activity (HT-1080 [15]): inactive
- Activity (HT-1080 [16]): inactive
- Activity (HT-1080 [17]): inactive
- Activity (HT-1080 [18]): Active
- Activity (HT-1080 [25]): inactive

SMILES: COc1ccc(C[C@@H]2c3cc(Oc4cc(C[C@H]5c6cc(OC)c(OC)cc6CCN5C)ccc4O)c(OC)cc3CCN2C)cc1
- Activity (HT-1080 [1]): inactive
